Assay results reported in US11505797B2, “Gene knockout of variant NRF2 for treatment of cancer” (Christiana Care Health Services, Inc., priority 2019, dated 2022).
“Also recorded” adds a separate entry of the source.

Tests used:
wildtype NRF2 sequence = experiment: In vitro cleavage reaction, wildtype NRF2 amplicons; type: biochemical, human; details: A549 or H1703 parental amplicons, 0.5-5 pmol RNP, gel electrophoresis
Description: (§1) As proof of concept, an in vitro cleavage reaction was conducted to assess the level of discrimination using the R34G guide RNA in a ribonucleoprotein complex (RNP). The in vitro cleavage reaction encompasses complexing target specific-guide RNA with Cas9 protein to form a ribonucleoprotein (RNP). The RNP is incubated with DNA of interest (100 ng) and the reaction and cleavage products are visualized by gel electrophoresis. For this experiment, wildtype and R34G-mutated NRF2 PCR products (901 bp) from an NRF2 expression plasmid (FIG. 21) were incubated with R34G-targeting RNP complex (1 μM) and cleavage products were visualized by gel electrophoresis, shown in FIG. 22.
Once the sequences were verified, genomic DNA from each cell line was used to amplify exon 2 of NRF2. The PCR products (530 bp) from each cell line were then used in in vitro cleavage reactions under various parameters to test specificity and fidelity of the R34G-targeting RNP. For these cleavage reactions, expected cleavage products would appear at 385 and 145 bp as indicated by the red lines along the ladder, with uncut product appearing at 530 bp. FIG. 24 depicts the gel image from an in vitro cleavage reaction using wildtype NRF2 sequence from parental A549 cells and R34G-mutated NRF2 sequence from the A549 R34G-6 cells. […]

[1] = test system: R34G-mutated NRF2 sequence; experiment: In vitro cleavage reaction, R34G-mutated NRF2 amplicons; type: biochemical, human; details: A549 R34G-6 amplicon, 0.5-5 pmol RNP, gel electrophoresis
Description: as §1
Once the sequences were verified, genomic DNA from each cell line was used to amplify exon 2 of NRF2. The PCR products (530 bp) from each cell line were then used in in vitro cleavage reactions under various parameters to test specificity and fidelity of the R34G-targeting RNP. For these cleavage reactions, expected cleavage products would appear at 385 and 145 bp as indicated by the red lines along the ladder, with uncut product appearing at 530 bp. FIG. 24 depicts the gel image from an in vitro cleavage reaction using wildtype NRF2 sequence from parental A549 cells and R34G-mutated NRF2 sequence from the A549 R34G-6 cells. An increasing concentration (0.5-5 pmol) of R34G-targeting RNP was used to determine the threshold and fidelity of the sequence. […] Uncut product (top band, 530 bp) can still be seen in lanes 7-10, which corresponds to the heterozygosity of the R34G mutation in the A549 R34G-6 cell line. Therefore, the wildtype NRF2 allele in the A549 R34G-6 cell line acts as an internal negative control.
Another in vitro cleavage reaction was conducted to assess the cleavage efficiency of the wildtype NRF2 sequence to ensure the R34G-targeting RNP was, in fact, not cleaving the wildtype NRF2 sequence because of the lack of the R34G mutation. A guide RNA with a cut site 29 bp upstream (labeled Neh2 RNP) from the R34G RNP cut site was selected and used as a positive cleavage control. […] Lanes 1-8 were reactions using wildtype NRF2 sequence while lanes 9-16 were reactions using R34G-mutated NRF2 sequence. In lanes 2-4 and 10-12, PCR products were incubated with increasing concentrations (1, 3 & 5 pmol) of RNP targeting the beginning of exon 2 (Neh2 RNP). The Neh2 guide RNA sequence is: 5′ […] 3′ (SEQ ID NO:13) which is a native CRISPR site and used as the positive control for cleavage for these reactions. […] In lanes 6-8 and 14-16, PCR products were incubated with increasing concentrations (1, 3 & 5 pmol) of R34G-targeting RNP. […] This further reinforces the specificity of the R34G-targeting RNP only recognizing the target DNA in the presence of the R34G mutation in exon 2 of NRF2. […]

wild type A549 tumors = experiment: Xenograft mouse model, wild type A549 tumors; type: in vivo, athymic nude mice; details: for tumor growth over 16 days: tail vein day 0, 3, 6, 9, cisplatin 2 mg/kg, cisplatin 5 mg/kg + vinorelbine 5 mg/kg, carboplatin 25 mg/kg
Description: (§2) The human xenograft model was established using methodology reported previously. Kellar et al., Biomed Res. Int. […] Female athymic nude mice (Envigo, 5-6 weeks old) were used in this study. Approximately 5×10^6 cells (wild type A549 or homozygous knockout (clonal expansion 2-11)) suspended in PBS with 20% Matrigel were injected subcutaneously into right flank of each mouse. Tumor volume was measured three times a week with a digital caliper once palpable, and calculated using the formula, tumor size=ab^2/2, where ‘a’ is the larger and ‘b’ is the smaller of the two dimensions. When tumors grew up to a mean volume of around 100 mm^3, A549 tumor bearing mice or A549-2-11 tumor bearing mice were randomly divided into 7 groups (N=5 for each group) respectively and subject to dose/regimen-finding study. […] Tumor volume and body weight was closely monitored over time. After 16 days, the animals were sacrificed, with tumor removed, weighed and processed for molecular analysis. Mice were euthanized. The data were expressed as mean±SD. Student's t-test and one-way or two-way ANOVA was used to assess the significance of difference. A P value<0.05 was considered significant.
(§3) A549 xenografts were resected on day 16, snap frozen in liquid nitrogen and stored in −80° C. until usage. All immunofluorescence staining was performed as previously described. Wang et al., Investig. Opthalmology Vis. […] Briefly, tumors were embedded in Optimum Cutting Temperature (Tissue Tek, Torrance, Calif., USA) and 16-μm-thick sections were obtained with a Leica CM3050 cryostat (Leica Microsystems, Buffalo Grove, Ill., USA), and mounted on slides. Slides were fixed and incubated with blocking buffer for 1 hour at room temperature. […] Sections were washed in PBS, then mounted with SlowFade Gold antifade mountant with DAPI (Invitrogen, Carlsbad, Calif., USA). Images were obtained with a Zeiss Observer.Z1 microscope (Carl Zeiss, Inc., Gottingen, Germany). The TUNEL assay was conducted with In Situ Cell Death Detection Kit, Fluorescein (Roche, Base, Switzerland), following the manufacturer's instructions. […]

wild type A549 cells = experiment: MTS cell proliferation assay, wild type A549 cells; type: cell-based, human
Description: (§4) Cell viability was evaluated using the CellTiter 96 Aqueous Non-Radioactive Cell Proliferation Assay (Promega, Madison, Wis.). A549 cell lines were plated at 2×10^3 cells per well and allowed to culture for 24 hours. The cell media was then aspirated, the cells washed with PBS, then exposed to the MTS reagent for 3 hours. After 3 hours of MTS bio-reduction by proliferating cells, the formazan product's absorbance was measured using a 450 nm filter on an Infinite 2000 PRO microplate reader (Tecan, Mannadorf, Switzerland). Cell viability after drug exposure was evaluated using the CellTiter 96 Aqueous Non-Radioactive Cell Proliferation Assay. A549 cell lines were plated at 2×10^3 cells per well and allowed to culture for 24 hours. The cells were then treated with cisplatin, carboplatin, or a combination of cisplatin and vinorelbine for three days. The cell media was then aspirated, the cells washed with PBS, then exposed to the MTS reagent for 3 hours. After 3 hours of MTS bio-reduction by proliferating cells, the formazan product's absorbance was measured using a 450 nm filter on an Infinite 2000 PRO microplate reader.

[2] = test system: NRF2 knockout A549 cells (2-11); experiment: MTS cell proliferation assay, NRF2 knockout A549 cells (2-11); type: cell-based, human
Description: as §4

[3] = test system: A549 Neh2 KO clones 1-17, 2-16, 2-23; experiment: MTS assay of A549 Neh2 KO clones treated with cisplatin; type: cell-based, human; details: 1, 2, 3, 5, 10 uM cisplatin
Text: The lung adenocarcinoma-derived cell line, A549, was used transfected with CRISPR/Cas9 designed to target exon 2 of NRF2 to create individual clones with random indel patterns. A total of three clones, 1-17, 2-16, and 2-23, were isolated and expanded. All three clones were collected for genomic DNA isolation and sanger sequencing to confirm the indels present. The DECODR program was used to deconvolute the sanger sequencing of each clone. The A549 cell line is polyploid and therefore, these clones contain 3 alleles of the NRF2 gene. Clone 1-17 contains −2, −2, −13 base pair deletions. Clone 2-16 contains a −1 base pair deletion across all alleles. Clone 2-23 contains two wildtype alleles and a −2 base pair deletion. A cell proliferation assay was used to assess the functionality of NRF2 after CRISPR targeting in combination with cisplatin treatment. […] Absorbance values for each clone and concentration were normalized by dividing the absorbance by the absorbance of each control well (0 μM). Normalized values for each clone at each concentration were then averaged across and standard error of the mean was calculated. […]
Several A549 NRF2 knockout clones were created and used for dose curves with Cisplatin and Carboplatin (0-10 uM concentration). […] These genomic profiles were analyzed by TIDE and DECODR. […]

[4] = test system: NRF2 knockout A549 (2-11) tumors; experiment: Xenograft mouse model, NRF2 knockout A549 (2-11) tumors; type: in vivo, athymic nude mice; details: cisplatin 2 mg/kg
Description: as §2, §3

Compound | cleavage of wildtype NRF2 amplicon (530 bp) (wildtype NRF2 sequence) | cleavage of R34G-mutated NRF2 amplicon (530 bp) [1] | Ki67 staining of xenograft tumors (wild type A549 tumors; cisplatin 2 mg/kg versus saline, day 16) | tumor growth over 16 days (wild type A549 tumors) | tumor growth over 16 days (wild type A549 tumors; listed as Cisplatin) | cisplatin concentration at which proliferation is adversely affected (wild type A549 cells; wild type A549, 72 hours) [µM] | chemosensitivity (MTS cell proliferation) (wild type A549 cells; wild type A549, increasing dosages, 72 hours) | cisplatin concentration with loss of proliferation ([2]; 2-11 knockout A549, 72 hours) [µM] | chemosensitivity (MTS cell proliferation) ([2]; 2-11 knockout A549, increasing dosages, 72 hours) | sensitivity to cisplatin (MTS), clones 1-17 and 2-16 [3] | sensitivity to cisplatin (MTS), clone 2-23 ([3]; two wildtype alleles and -2 bp deletion) | Ki67 staining of xenograft tumors ([4]; day 16) | tumor growth over 16 days ([4]; tail vein day 0, 3, 6, 9, cisplatin 5 mg/kg + vinorelbine 5 mg/kg, carboplatin 25 mg/kg)
5′ TGGATTTGATTGACATACTTTGG 3′ [Neh2 RNP] | can be seen in both wildtype and R34G-mutated NRF2 sequences | can be seen in both wildtype and R34G-mutated NRF2 sequences |  |  |  |  |  |  |  |  |  |  | 
N.N.[Cl][Pt][Cl] [cisplatin] |  |  | no difference in Ki67 levels | proliferate aggressively | not inhibited by the drug | ≥ 5 | resistant to high dosages of Cisplatin | ≥ 1 | heightened sensitivity | relatively the same trend of sensitivity | even higher resistance than the wildtype cells | substantially lower | proliferation of the implanted cells is arrested, and the tumor size is maintained at the same level; also recorded: smallest tumors; also recorded: significant reduction in tumor cell proliferation
